From patent US7528113B2, “Method and composition for the treatment of adenoviral ocular infections” (priority 1999, dated 2009)
Read-outs that look alike come from different tables or passages of the source.

Legend:
[1] = tested on: Ad37 virus; assay: Binding of 125I-labeled Ad37 to glycosphingolipids; parameters: species or system adenovirus; details: preliminary results, thin layer chromatography, FIG. 3
[2] = tested on: Ad37 binding to Chang C conjunctival cells; assay: microbe, parasite or virus in culture; type: cell-based, adenovirus; details: for Interference with the binding of Ad37 to sialic acid expressing cells: 160 mmol concentrations
From the text: (§1) Interference of the binding of adenovirus subtype 37 (Ad37) with the first step cellular receptor was studied using dextran sulphate and glycosaminoglycans, such as heparin and heparan sulphates. […] It was thus confirmed that the cellular receptor for Ad37 is (2-3) linked sialic acid.
The effect of glycoproteins to inhibit Ad37 binding to Chang C conjunctival cells was investigated using the following glycoproteins: fetuin, mucin, orosomucoid and glycophorin A. The results are presented in table 2.
The inventors confirmed the inventive concept by determining the inhibition achieved with different carbohydrates, using adenovirus type 37 and Chang C conjunctival cells.
All data are visualised as the dose required for 50% inhibition of adenovirus binding and the maximum inhibition of adenovirus binding.

[3] = tested on: adenovirus subtype 37 (Ad37); assay: Interference of the binding of Ad37 with the first step cellular receptor; type: cell-based
From the text: as §1

[4] = tested on: adenovirus type 8 binding to Chang C conjunctival cells; assay: Inhibition of adenovirus type 8 binding to Chang C conjunctival cells; type: cell-based
[5] = tested on: adenovirus type 19a binding to Chang C conjunctival cells; assay: Inhibition of adenovirus type 19a binding to Chang C conjunctival cells; type: cell-based
[6] = tested on: adenoviral adhesion; assay: Inhibition of adenoviral adhesion by multivalent ligands; type: cell-based, adenovirus; details: multivalent ligand
From the text: Monovalent analogues of the sialic acid receptor will have to cover most of the twelve fibres at each of the twelve comers of the virus particle to enable efficient blocking of the binding of the virus particle to the host cell receptors. Divalent or multivalent analogues will, by interacting with a few fibres, enable aggregation of numerous virus particles into a lattice. This will hamper or inhibit virus infection with a higher efficiency, i.e. more inhibition per μmole of ligand.

[7] = tested on: Ad37 binding to Chinese hamster ovary cells; assay: Ad37 binding to Chinese hamster ovary cells that do not express CAR; type: cell-based, adenovirus; details: Chinese hamster ovary cells not expressing CAR; see FIG. 2
From the text: as §1

[8] = tested on: Ad37 binding to human epithelial A549 cells; assay: Ad37 binding to A549 cells; type: cell-based, adenovirus; details: pre-treatment / pre-incubation of the cells; FIG. 2
From the text: Binding to human epithelial A549 cells was investigated. […] This means that Ad8, Ad19a and Ad37, but not types 9 and 19p infect A549 cells by binding to cell surface sialic acid.

[9] = Chang cells, sialylated glycoproteins, read-out: Concentration of glycoprotein causing 50% inhibition of Ad37 binding
[10] = Chang cells, sialic acid carbohydrates, read-out: Concentration of carbohydrate causing 50% inhibition of Ad37 binding
[11] = read-out: Concentration of carbohydrate causing 50% inhibition of Ad37 binding

With “Galβ3GalNAcβ4(NeuAcα8NeuAcα3)Galβ4Glcβ1 [NeuAc-GD1b]” the “Ad37 virus binding to the structure” value [1] was “effective for Ad37 virus binding”.

In the case of “Orosomucoid: sialylated, negatively charged glycoprotein”, the “Maximal inhibition of Ad37 binding in %” value ([2]; 500 μM glycoprotein) is reported as 77% and the IC50 [2, 9] is reported as 75 µM.

In the case of GalNAcβ4(NeuAcα3)Galβ4Glcβ1 [NeuAcGM2], the “Ad37 virus binding to the structure” value [1] is reported as “effective for Ad37 virus binding”.

For dextran sulphate, the “Impairment of Ad37 binding by negatively charged molecules” value (from here on “Impairment of Ad37 binding”) [3] was “could impair binding of the virus”.

`O=C[C@H](O)[C@@H](O)[C@@H](O)[C@H](O)CO` [galactose, reference compound] was tested, and the “Interference with the binding of Ad37 to sialic acid expressing cells” value (shortened to “Interference with the binding of Ad37”) [2] was “did not interfere with the binding”.

heparin was tested, and the “Maximal inhibition of binding in %” value ([4]; adenovirus type 8, 670 μM heparin) was 92%, the IC50 ([4]; adenovirus type 8, Chang C conjunctival cells, read-out: Concentration of heparin causing 50% inhibition of binding) was 30 µM and the “Maximal inhibition of binding in %” value ([5]; 670 μM heparin) was 90%. The IC50 ([5]; Chang C conjunctival cells, read-out: Concentration of heparin causing 50% inhibition of binding) was 25 µM, the “Maximal inhibition of binding in %” value ([2]; adenovirus type 37, 670 μM heparin) was 87% and the IC50 ([2]; adenovirus type 37, Chang C conjunctival cells, read-out: Concentration of heparin causing 50% inhibition of binding) was 20 µM. The “Impairment of Ad37 binding” value [3] was “could impair binding of the virus”.

`CC(=O)N[C@H]1[C@H]([C@H](O)[C@H](O)CO)O[C@@](OC[C@H]2O[C@@H](O[C@H]3[C@H](O)[C@@H](NC(C)=O)C(O)O[C@@H]3CO)[C@H](O)[C@@H](O)[C@H]2O)(C(=O)O)C[C@@H]1O` (stereo partly drawn) [α-Neu-5Ac-(2-6)-β-D-Gal-(1-4)-D-GlcNAc] was tested, and the “Inhibiting binding of Ad37 to sialic acid-expressing cells (in words)” value (“Inhibiting binding of Ad37” for short) [2] was “effective in inhibiting binding” and the IC50 [2, 10] was 7000 µM.

For heparan sulphates, the “Impairment of Ad37 binding” value [3] was “could impair binding of the virus”.

With `CC(=O)N[C@H]1[C@@H](O)[C@H](O)[C@@H](CO)O[C@@H]1O` [acetyl mannose amine, reference compound] the “Interference with the binding of Ad37” value [2] was “did not interfere with the binding”.

For Fetuin: sialylated glycoprotein, the “Maximal inhibition of Ad37 binding in %” value ([2]; 500 μM glycoprotein) was 62% and the IC50 [2, 9] was 420 µM.

`CC(=O)N[C@H]1[C@H]([C@H](O)[C@H](O)CO)OC(O)(C(=O)O)C[C@@H]1O` (stereo partly drawn) [N-acetyl-neuraminic acid] was tested, and the “Inhibiting binding of Ad37” value [2] was “effective in inhibiting binding”, the “Maximal inhibition of Ad37 binding in %” value ([2]; 160 mM carbohydrate) was 82% and the IC50 [2, 11] was 18000 µM.

For `CC(=O)NC1C(O)CC(OC2C(O)C(CO)OC(OC3C(O)C(CO)OC(O)C3NC(C)=O)C2O)(C(=O)O)OC1C(O)C(O)CO` [α-NeuAc-(2-3)-β-D-Gal-(1-3)-β-GalNAc], the “Ad37 virus binding to the structure” value [1] was “effective for Ad37 virus binding”.

For `CC(=O)N[C@@H]1[C@@H](O)[C@H](O)[C@@H](CO)O[C@H]1O` [acetyl glucose amine, reference compound], the “Interference with the binding of Ad37” value [2] was “did not interfere with the binding”.

For “GalNAcβ4(NeuAcα8NeuAcα3)Galβ4Glcβ1 [NeuAc-GD2]”, the “Ad37 virus binding to the structure” value [1] was “effective for Ad37 virus binding”.

“NeuAcα3Galβ3GalNAcβ4(NeuAcα3)Galβ4Glcβ1 [NeuAc-GD1a]” was tested, and the “Ad37 virus binding to the structure” value [1] was “effective for Ad37 virus binding”.

In the case of Colominic acid, the “Inhibiting binding of Ad37” value [2] is reported as “effective in inhibiting binding” and the “Maximal inhibition of Ad37 binding in %” value ([2]; 160 mM carbohydrate) is reported as 79%.

`CC(=O)N[C@H]1[C@H]([C@H](O)[C@H](O)CO)O[C@@](O[C@H]2[C@@H](O)[C@@H](CO)O[C@@H](O[C@H]3[C@H](O[C@@H]4O[C@@H](C)[C@@H](O)[C@@H](O)[C@@H]4O)[C@@H](O)C(O)O[C@@H]3CO)[C@@H]2O)(C(=O)O)C[C@@H]1O` (stereo partly drawn) [N-Acetyl Neuraminyl-3-Fucosyl Lactose, α-Neu-5-Ac-(2-3)-β-D-Gal(1-4)-(α-Fuc-(1-3))-Glc] was tested, and the “Inhibiting binding of Ad37” value [2] was “effective in inhibiting binding” and the IC50 [2, 10] was 5000 µM.

Mucin was tested, and the “Maximal inhibition of Ad37 binding in %” value ([2]; 500 μM glycoprotein) was 89%, the IC50 [2, 9] was 8 µM and the Inhibiting adenoviral adhesion [6] was “very effective”.

In the case of `CC(=O)N[C@@H]1[C@@H](O)[C@@H](O)[C@@H](CO)O[C@@H]1O` [acetyl galactose amine, reference compound], the “Interference with the binding of Ad37” value [2] is reported as “did not interfere with the binding”.

With `CC(=O)N[C@H]1[C@H]([C@H](O)[C@H](O)CO)O[C@@](O[C@H]2[C@@H](O)[C@@H](CO)O[C@@H](O[C@H]3[C@H](O)[C@@H](NC(C)=O)C(O)O[C@@H]3CO)[C@@H]2O)(C(=O)O)C[C@@H]1O` (stereo partly drawn) [α-NeuNAc-(2-3)-β-D-Gal-(1-4)-D-GlcNAc] the “Inhibiting binding of Ad37” value [2] was “effective in inhibiting binding” and the IC50 [2, 10] was 5000 µM.

For wheat germ agglutinin, the “Inhibition/blocking of Ad37 binding” value [7] was “blocked the binding” and the “Inhibition of Ad37 binding to A549 cells” value [8] was “is inhibited”.

In the case of `O=C(CO)N[C@H]1[C@H]([C@H](O)[C@H](O)CO)OC(O)(C(=O)O)C[C@@H]1O` (stereo partly drawn) [N-glycolyl-neuraminic acid], the “Inhibiting binding of Ad37” value [2] is reported as “effective in inhibiting binding”, the “Maximal inhibition of Ad37 binding in %” value ([2]; 160 mM carbohydrate) is reported as 91% and the IC50 [2, 11] is reported as 40000 µM.

N-acetyl-neuraminyllactose was tested, and the “Inhibiting binding of Ad37” value [2] was “effective in inhibiting binding”, the “Maximal inhibition of Ad37 binding in %” value ([2]; 160 mM carbohydrate) was 95% and the “Inhibition of Ad37 binding (in words)” value ([2]; 160 mM concentration) was “almost total inhibition”. The IC50 [2, 10] was 5000 µM.

`OC[C@H]1O[C@@H](O[C@H]2[C@H](O)[C@@H](O)C(O)O[C@@H]2CO)[C@H](O)[C@@H](O)[C@H]1O` (stereo partly drawn) [lactose, reference compound] was tested, and the “Interference with the binding of Ad37” value [2] was “did not interfere with the binding”.

B1: Glycophorin A: sialylated glycoprotein (protein, UniProt P02724 20-150, looked up)
Glycophorin-A: LSTTEVAMHTSTSSSVTKSYISSQTNDTHKRDTYAATPRAHEVSEISVRTVYPPEEETGERVQLAHHFSEPEITLIIFGVMAGVIGTILLISYGIRRLIKKSPSDVKPLPSPDTDVPLSSVEIENPETSDQ
For B1, the “Maximal inhibition of Ad37 binding in %” value ([2]; 500 μM glycoprotein) was 45% and the IC50 [2, 9] was > 500 µM.
